Experimental data from article PMC10057977, “Use of In Vivo Imaging and Physiologically-Based Kinetic Modelling to Predict Hepatic Transporter Mediated Drug–Drug Interactions in Rats” (Pharmaceutics, 2023).
Read-outs that look alike come from different tables or passages of the source. One block for each compound: values may come before it.

Assays:
[1] = tested on: OATP1B; set-up: method as in supplement [18]; conditions: plasma AUC ratio; ref supplement [18]; cited from earlier work
[2] = cited from earlier work
[3] = tested on: rNtcp; set-up: method as in PMID 16258024, PMID 29891589, PMID 21415249, PMID 11883641, PMID 15550721; conditions: in vitro; cited from earlier work
[4] = molecular target: rMrp2 (Rattus norvegicus, UniProt Q63120); set-up: method as in PMID 16258024, PMID 29891589, PMID 21415249, PMID 11883641, PMID 15550721; conditions: in vitro; NI = reported not to inhibit the transporter; cited from earlier work
Chain of rMrp2 (Q63120 whole entry): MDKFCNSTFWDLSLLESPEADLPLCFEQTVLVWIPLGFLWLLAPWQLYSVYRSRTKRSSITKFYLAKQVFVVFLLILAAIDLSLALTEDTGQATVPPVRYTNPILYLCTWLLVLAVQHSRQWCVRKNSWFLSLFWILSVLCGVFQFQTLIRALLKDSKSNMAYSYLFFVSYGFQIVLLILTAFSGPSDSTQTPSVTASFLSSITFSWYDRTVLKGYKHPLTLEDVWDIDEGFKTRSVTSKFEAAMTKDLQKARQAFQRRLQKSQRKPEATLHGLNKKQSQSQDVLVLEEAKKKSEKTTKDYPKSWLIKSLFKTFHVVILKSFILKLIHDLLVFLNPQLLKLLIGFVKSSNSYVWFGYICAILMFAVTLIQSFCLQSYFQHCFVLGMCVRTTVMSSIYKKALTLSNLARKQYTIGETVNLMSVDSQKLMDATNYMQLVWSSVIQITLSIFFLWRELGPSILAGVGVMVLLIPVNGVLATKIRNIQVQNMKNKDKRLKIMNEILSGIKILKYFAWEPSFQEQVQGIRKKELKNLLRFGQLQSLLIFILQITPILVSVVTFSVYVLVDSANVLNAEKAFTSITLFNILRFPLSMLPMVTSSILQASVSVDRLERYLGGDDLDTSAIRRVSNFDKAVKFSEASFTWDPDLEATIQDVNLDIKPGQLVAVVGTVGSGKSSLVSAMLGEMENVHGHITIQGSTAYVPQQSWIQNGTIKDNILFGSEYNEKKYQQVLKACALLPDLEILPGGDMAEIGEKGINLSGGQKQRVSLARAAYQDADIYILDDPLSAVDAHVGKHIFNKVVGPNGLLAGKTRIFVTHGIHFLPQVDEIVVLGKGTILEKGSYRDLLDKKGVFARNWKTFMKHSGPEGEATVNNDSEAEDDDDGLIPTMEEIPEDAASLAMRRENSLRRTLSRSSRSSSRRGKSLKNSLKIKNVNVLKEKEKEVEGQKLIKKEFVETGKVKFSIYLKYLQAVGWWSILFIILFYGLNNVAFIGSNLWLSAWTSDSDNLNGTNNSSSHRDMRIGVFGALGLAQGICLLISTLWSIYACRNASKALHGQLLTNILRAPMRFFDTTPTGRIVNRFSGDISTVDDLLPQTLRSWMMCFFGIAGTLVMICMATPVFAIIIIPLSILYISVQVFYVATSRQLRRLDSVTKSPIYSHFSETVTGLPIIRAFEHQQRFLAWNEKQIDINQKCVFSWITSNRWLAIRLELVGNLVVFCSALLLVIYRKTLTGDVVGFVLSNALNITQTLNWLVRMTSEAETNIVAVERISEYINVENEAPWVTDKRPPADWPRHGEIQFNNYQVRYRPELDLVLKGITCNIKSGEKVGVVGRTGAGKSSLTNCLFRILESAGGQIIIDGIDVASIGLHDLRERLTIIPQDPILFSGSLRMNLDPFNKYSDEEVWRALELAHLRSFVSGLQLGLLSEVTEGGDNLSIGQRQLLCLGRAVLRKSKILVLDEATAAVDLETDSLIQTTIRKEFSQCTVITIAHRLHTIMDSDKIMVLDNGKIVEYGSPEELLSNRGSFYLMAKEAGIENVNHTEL

[5] = molecular target: T1, rOatp1b (Rattus norvegicus, UniProt Q9QZX8); format: in vivo; conditions: for Simple Effect Size (95% CI) K^trans: gadoxetate hepatic plasma clearance; for Simple Effect Size (95% CI) K^trans / Simple Effect Size (95% CI) khe: control − treatment, positive = decrease; for Simple Effect Size (95% CI) khe: gadoxetate hepatic uptake
T1 construct: from tissue; host or cells: liver of living male Wistar rats (Charles River Laboratories)
T1 sequence (Q9QZX8 1-687): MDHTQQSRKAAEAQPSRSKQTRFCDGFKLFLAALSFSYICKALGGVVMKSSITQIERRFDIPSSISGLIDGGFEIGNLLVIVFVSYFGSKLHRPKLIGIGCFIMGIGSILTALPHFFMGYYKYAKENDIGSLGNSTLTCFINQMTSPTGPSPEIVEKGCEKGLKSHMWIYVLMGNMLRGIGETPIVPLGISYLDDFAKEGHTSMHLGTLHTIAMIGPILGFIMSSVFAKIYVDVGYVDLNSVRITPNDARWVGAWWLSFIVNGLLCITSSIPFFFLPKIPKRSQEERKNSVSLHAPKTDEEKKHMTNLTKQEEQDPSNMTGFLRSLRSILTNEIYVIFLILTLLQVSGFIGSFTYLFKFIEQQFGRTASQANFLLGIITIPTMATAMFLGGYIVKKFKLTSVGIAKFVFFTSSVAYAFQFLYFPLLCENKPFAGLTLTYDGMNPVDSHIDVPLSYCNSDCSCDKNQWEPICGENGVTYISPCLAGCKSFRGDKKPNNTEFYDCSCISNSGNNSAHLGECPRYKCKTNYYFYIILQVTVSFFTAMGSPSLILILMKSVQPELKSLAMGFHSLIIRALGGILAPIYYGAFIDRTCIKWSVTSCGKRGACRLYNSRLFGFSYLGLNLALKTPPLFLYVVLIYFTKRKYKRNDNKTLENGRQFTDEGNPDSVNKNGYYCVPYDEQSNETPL
Text: The tracer-kinetic model was developed to enable estimation of rate constants of hepatobiliary efflux from DCE-MRI profiles in individual animals. In this approach, the liver was assumed to consist of two compartments, the extracellular space (e) and the hepatocytes (h). Since water exchanges rapidly between those spaces, the change in relaxation rate was a weighted average (Equation (4)). (4) ΔR1(t)=r1,e·ve·ce(t)+r1,h·vh·ch(t)
The proportionality constant, r1,τ [L⋅mmol^−1⋅s^−1] , is the relaxivity of the contrast agent for the compartment τ (extracellular space, e or hepatocytes, h) at the respective field strength, while vτ [mL/mL tissue] is the volume fraction of the compartment τ . Previously measured ex vivo r1,tau values for gadoxetate were used in this work, as per. The underlying assumptions of the PBPK and tracer-kinetic models, relating to physiological volumes and perfusion, are consistent, despite different parameterizations according to the purpose of each model. For example, Vliv,extr in the PBPK model is defined as an absolute volume (units = L; sum of liver plasma and interstitial volumes), while in the tracer-kinetic model, ve is a volume fraction (dimensionless), defined as Vliv,extr/Vliver , where Vliver is the total liver volume. While some analogy can be drawn between CLactive […], and CLbiliary and kbh, the interpretations are distinct. For example, the operating concentrations of the PBPK parameters CLactive […], and CLbiliary are the unbound concentrations of gadoxetate in plasma and hepatocytes, while the tracer-kinetic model is parameterized with respect to the total concentration of gadoxetate.
Since ce(t) is the input to the hepatocytes, and no backflux from hepatocytes to extracellular space is assumed, Equation (5) can be derived. (5) vh·ch(t)=e^−t/Th∗khe·ce(t) where Th is the mean transit time of gadoxetate in the hepatocytes [min] , and * is convolution. The extracellular space is assumed to be in equilibrium with the blood pool and therefore the concentration ce(t) is proportional to the concentration cp(t) in the plasma of the feeding artery, i.e., ce(t) = (1 − E)·cp(t), where E is the extraction fraction of gadoxetate in the liver. Combining this assumption with Equations (4) and (5), and using (1 − E)·khe = E·Fp, with Fp being the apparent plasma flow into the liver [mL/min/mL tissue volume] , gives Equation (6), the operational equation for gadoxetate DCE-MRI in the liver. (6) ΔR1(t)=(1−E)·ve·r1,p·cp(t)+E·Fp·r1,h ·e^−t/Th ∗cp(t)
The rate constants were derived as K^trans = E·Fp, khe = E·Fp/(1 − E), and kbh = vh/Th, with a literature value for vh. The plasma concentrations cp(t) were not reliably measured in small animals due to the small diameter of the main vessels compared to the resolution of the measurement. […] Therefore, the source term cp(t) was derived from a two-compartment pharmacokinetic model for gadoxetate (see Supplementary Material, Section S5), and a step function as input in the blood compartment. The parameters kbh and khe were fitted to the liver data using a model implementation in Python. For each rat considered in these studies, the rate constants K^trans, khe, and kbh were calculated, in both control and inhibitory phases. […] Statistical significance was assessed through a two-sided paired t-test, with p < 0.05 considered significant.

[6] = tested on: OATP1B3; set-up: method as in earlier work; conditions: in vitro; ref 30,43-55 and in-house data from Merck & Co.; cited from earlier work
[7] = unbound concentration ratio between hepatocyte and plasma; ref supplement [39] rifampicin, [40] asunaprevir, [41] bosentan, ciclosporin, ketoconazole; cited from earlier work
[8] = fraction unbound in plasma; cited from earlier work
[9] = tested on: NTCP; set-up: method as in earlier work; conditions: in vitro; ref 30,43-55 and in-house data from Merck & Co.; cited from earlier work
[10] = tested on: rOatp1a4; conditions: in vitro, cited from earlier work
[11] = in vivo; cited from earlier work
[12] = pioglitazone 0.4 mg/kg iv, site E

Simple Effect Size (95% CI) K^trans ([5]; asunaprevir 5 mg/kg iv, site E): 0.24 (−0.01, 0.48) mL/min/mL liver
Simple Effect Size (95% CI) khe ([5]; asunaprevir 5 mg/kg iv, site E): 2.34 (−0.92, 5.60) mL/min/mL liver
SMILES: C=C[C@@H]1C[C@]1(NC(=O)[C@@H]1C[C@@H](Oc2ncc(OC)c3ccc(Cl)cc23)CN1C(=O)[C@@H](NC(=O)OC(C)(C)C)C(C)(C)C)C(=O)NS(=O)(=O)C1CC1 [Asunaprevir]
AUCR of rosuvastatin (presence vs absence of inhibitor) [1]: < 2 fold
Cmax ([2]; human plasma, daily dose 200 mg (asunaprevir), read-out: Cmax (µM) [Daily Dose]): 0.76 µM
IC50 [3]: 0.6 µM
IC50 [4]: 11 µM
IC50 [6]: 0.65 µM
Kpuu [7]: 11.5

SMILES: COc1ccccc1Oc1c(NS(=O)(=O)c2ccc(C(C)(C)C)cc2)nc(-c2ncccn2)nc1OCCO [Bosentan]
fu [8]: <0.02
Cmax ([2]; human plasma, daily dose 250 mg, read-out: Cmax (µM) [Daily Dose]): 3.3 µM
IC50 [9]: 18 µM
IC50 [3]: 0.4 µM
Simple Effect Size (95% CI) K^trans ([5]; bosentan 2 mg/kg iv, site G1, subjects 3, 4, 6 excluded): 0.28 (−0.32, 0.88) mL/min/mL liver
Simple Effect Size (95% CI) K^trans ([5]; bosentan 4–6 mg/kg iv, site G2): 0.07 (−0.12, 0.26) mL/min/mL liver
Simple Effect Size (95% CI) khe ([5]; bosentan 2 mg/kg iv, site G1, subjects 3, 4, 6 excluded, khe physiologically implausible): −54.22 (−197.97, 89.53) mL/min/mL liver
Simple Effect Size (95% CI) khe ([5]; bosentan 4–6 mg/kg iv, site G2): 1.07 (−1.13, 3.26) mL/min/mL liver
IC50 [6]: 5.2 µM
Kpuu [7]: 3

SMILES: CCc1ccc(CCOc2ccc(CC3SC(=O)NC3=O)cc2)nc1 (stereo not drawn) [Pioglitazone]
fu [8]: <0.01
Cmax ([2]; human plasma, daily dose 30 mg, read-out: Cmax (µM) [Daily Dose]): 4.8 µM
Simple Effect Size (95% CI) K^trans [5, 12]: 0.13 (−0.05, 0.32) mL/min/mL liver
Simple Effect Size (95% CI) khe [5, 12]: 1.21 (−0.10, 2.51) mL/min/mL liver
IC50 [6]: 3.41 µM

SMILES: CO[C@H]1/C=C/O[C@@]2(C)Oc3c(C)c(O)c4c(O)c(c(/C=N/N5CCN(C)CC5)c(O)c4c3C2=O)NC(=O)/C(C)=C\C=C\[C@H](C)[C@H](O)[C@@H](C)[C@@H](O)[C@@H](C)[C@H](OC(C)=O)[C@@H]1C [Rifampicin]
fu [8]: 0.2
Cmax ([2]; human plasma, daily dose 600 mg, read-out: Cmax (µM) [Daily Dose]): 0.85 µM
Cmax ([2]; human, ref supplement [17], read-out: typical maximum plasma concentration (Cmax) in clinical studies): 4 to 20 µM
IC50 [9]: 277 µM
IC50 [4]: 20 to 53 µM
IC50 ([10]; read-out: IC50 (µM) rOatp1a4): 1.3 µM
Ki ([10]; read-out: Ki (µM) rOatp1a4): 2.9 µM
Simple Effect Size (95% CI) khe ([5]; * p < 0.05, rifampicin 2 mg/kg iv, site G2): 7.20 mL/min/mL liver
IC50 [6]: 0.11 µM

hepatic extraction ratio (E) ([5]; rat, in vivo): > 0.95
khe, new value in unified units ([5]; rat, in vivo): 11.1 mL/min
khe, original value ([5]; rat, in vivo): 1.31 mL/ min/ mL tissue volume
SMILES: CCOc1ccc(C[C@@H](CN(CCN(CC(=O)[O-])CC(=O)[O-])CC(=O)[O-])N(CC(=O)[O-])CC(=O)[O-])cc1.[Gd+3].[H+].[H+] [gadoxetate, Gadoxetate]
hepatic extraction [11]: approx. 20%
